Test results from publication PMC8623179, “Design and Microwave Synthesis of New (5Z) 5-Arylidene-2-thioxo-1,3-thiazolinidin-4-one and (5Z) 2-Amino-5-arylidene-1,3-thiazol-4(5H)-one as New Inhibitors of Protein Kinase DYRK1A” (Pharmaceuticals, 2021).
pIC50: −log10 of the molar value. Read-outs that look alike come from different tables or passages of the source.

Experiments:
Casein kinase 1 (CK1δ/ε) = assay: CK1δ/ε kinase assay; format: biochemical, porcine; details: 15 μM ATP, read-out: IC50 CK1
Experimental: (§1) The twenty-two (5Z) 5-arylidene-2-thioxo-1,3-thiazolidin-4-ones 3a–v and the twenty-four (5Z) 2-amino-5-arylidene-1,3-thiazolidin-4(5H)-ones 5a–x were evaluated against four different and representative in vitro kinase assays DYRK1A (dual specificity tyrosine phosphorylation regulated kinase), CK1 δ/e (caseine kinase 1), CDK5/p25 (cyclin dependant kinase), and GSK3 α/β (glycogen synthase kinase 3) to evaluate their inhibition potency. […] All the compounds were initially tested at a 10 μM concentration.
(§2) After 30-min incubation at 30 °C, the reaction was stopped by harvesting, using a FilterMate harvester (Packard), onto P81 phospho-cellulose papers (GE Healthcare, Chicago, IL, USA) which were washed in 1% phosphoric acid. Scintillation fluid was added and the radioactivity measured in a Packard counter. Blank values were subtracted and activities calculated as pmoles of phosphate incorporated for the 30-min incubation. The activities were expressed in % of the maximal activity, i.e., in the absence of inhibitors. Controls were performed with appropriate dilutions of DMSO.
Casein kinase 1 (CK1δ/ε) (porcine brain, native) was assayed with 0.67 µg of CKS peptide ([…]pSAYSITA), a CK1 specific substrate obtained from Millegen (Labege, France).

CDK5/p25 = target: T1, CDK5/p25 (Homo sapiens, UniProt Q00535); assay: CDK5/p25 kinase assay; format: biochemical; details: 15 μM ATP
T1 construct: made in house
T1 sequence (Q00535 whole entry): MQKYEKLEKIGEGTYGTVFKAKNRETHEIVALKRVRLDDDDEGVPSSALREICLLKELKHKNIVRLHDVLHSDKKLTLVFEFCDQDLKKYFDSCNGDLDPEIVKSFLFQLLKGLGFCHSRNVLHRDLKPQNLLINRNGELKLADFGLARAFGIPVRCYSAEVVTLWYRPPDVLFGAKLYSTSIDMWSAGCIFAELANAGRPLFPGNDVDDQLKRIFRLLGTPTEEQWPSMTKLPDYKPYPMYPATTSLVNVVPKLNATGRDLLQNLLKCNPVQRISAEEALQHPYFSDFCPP
T1 sequence (Q15078 99-307 partner limits assumed): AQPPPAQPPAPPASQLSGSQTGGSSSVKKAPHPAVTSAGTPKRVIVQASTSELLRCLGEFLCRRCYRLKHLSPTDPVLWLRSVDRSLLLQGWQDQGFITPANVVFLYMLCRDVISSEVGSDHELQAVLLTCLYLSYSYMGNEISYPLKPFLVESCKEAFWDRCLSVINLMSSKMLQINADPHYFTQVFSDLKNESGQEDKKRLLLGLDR
Experimental: as §1, §2
CDK5/p25 (human, recombinant) was prepared as previously described. […] ATP (3000 Ci/mmol; 10 mCi/mL) in a final volume of 30 μL. After 30-min incubation at 30 °C, 25 μL aliquots of supernatant were spotted onto 2.5 × 3 cm pieces of Whatman P81 phospho-cellulose paper, and, 20 s later, the filters were washed five times (for at least 5 min each time) in a solution of 10 mL phosphoric acid/litter of water. The wet filters were counted in the presence of 1 mL ACS (Amersham, UK) scintillation fluid.

DYRK1A [1] = target: T2, DYRK1A (Rattus norvegicus, UniProt Q63470); assay: DYRK1A kinase assay; format: biochemical; details: 15 μM ATP
T2 construct: GST; made in house; host or cells: Escherichia coli
Experimental: as §1
as §2, with “DMSO. […]” for “DMSO.”

GSK-3α/β = GSK-3α/β kinase assay; format: biochemical, porcine; details: 15 μM ATP, read-out: IC50 GSK3α/β
Experimental: as §1, §2
GSK-3α/β (porcine brain, native) was assayed, as described for CDK5/p25 but in Buffer A and using a GSK-3 specific substrate (GS-1: […]pEDEEE) (pS stands for phosphorylated serine). GS-1 was synthesized by Millegen (Labege, France).

NCI-H727 = assay: Cell survival assay, NCI-H727; format: cell-based; details: Homo sapiens, 48 h exposure, nuclei count, read-out: Cell Lines IC50 NCI-H727
Experimental: (§3) Skin diploid fibroblastic cells were provided by BIOPREDIC International Company (Rennes, France). […] Cells were grown according to ECACC recommendations. The toxicity test of the compounds on these cells was as follows: 2 × 10^3 cells for HCT-116 cells or 4 × 10^3 for the other cells were seeded in 96-multi-well plates in triplicate and left for 24 h for attachment, spreading and growing. Then, cells were exposed for 48 h to increasing concentrations of the compounds, ranging from […], in a final volume of 120 μL of culture medium. […] The IC50 were graphically determined.

HCT116 = assay: Cell survival assay, HCT116; format: cell-based; details: Homo sapiens, HCT-116; 48 h exposure, nuclei count; read-out: Cell Lines IC50 HCT116
Experimental: as §3

Huh7 D12 = assay: Cell survival assay, Huh7 D12; format: cell-based; details: Huh-7D12; 48 h exposure, nuclei count; read-out: Cell Lines IC50 Huh7 D12
Experimental: as §3

MDA-MB231 = assay: Cell survival assay, MDA-MB231; format: cell-based; details: Homo sapiens, MDA-MB-231; 48 h exposure, nuclei count; read-out: Cell Lines IC50 MDA-MB231
Experimental: as §3

Fibroblasts = assay: Cell survival assay, normal skin diploid fibroblasts; format: cell-based; details: Fibroblast; normal cells, 48 h exposure, nuclei count; read-out: Cell Lines IC50 Fibroblasts
Experimental: as §3

PC3 = assay: Cell survival assay, PC3; format: cell-based; details: Homo sapiens, PC-3; 48 h exposure, nuclei count; read-out: Cell Lines IC50 PC3
Experimental: as §3

Caco2 = assay: Cell survival assay, Caco2; format: cell-based; details: Homo sapiens, Caco-2; 48 h exposure, nuclei count; read-out: Cell Lines IC50 Caco2
Experimental: as §3

DYRK1A [2] = details: reported, cited from earlier work

| pIC50 (Casein kinase 1 (CK1δ/ε); Table 4) | pIC50 (CDK5/p25; Table 4) | pIC50 (DYRK1A [1]; Table 4) | pIC50 (GSK-3α/β; Table 4) | Molecule | pIC50 (DYRK1A [2]) | other results |
| --- | --- | --- | --- | --- | --- | --- |
| < 5.00 | < 5.00 | 6.15 | < 5.00 | O=C1NC(=S)S/C1=C\c1cc(Br)c2c(c1)OCO2 [Compound 3i, (5Z)-5-[(7-Bromo-1,3-benzodioxol-5-yl)methylene]-2-thioxo-1,3-thiazolidin-4-one] | – | melting point: > 260 °C |
| < 5.00 | < 5.00 | 4.82 | – | O=C1NC(=S)S/C1=C\c1cc2ccccc2o1 [Compound 3l, (5Z)-5-(1-Benzofuran-2-ylmethylene)-2-thioxo-1,3-thiazolidin-4-one] | – | melting point: 246 to 250 °C |
| ≤ 5.00 | – | 7.19 | 5.10 | COc1cc(/C=C2\SC(=S)NC2=O)ccc1O [Compound 3c, (5Z)-5-(4-Hydroxy-3-methoxybenzylidene)-2-thioxo-1,3-thiazolidin-4-one] | – | pIC50 (NCI-H727): < 4.60; pIC50 (HCT116): 4.92; pIC50 (Huh7 D12): < 4.60; pIC50 (MDA-MB231): < 4.60; pIC50 (Fibroblasts): < 4.60; pIC50 (PC3): < 4.60; pIC50 (Caco2): < 4.60 |
| < 5.00 | < 5.00 | < 5.00 | < 5.00 | O=C1NC(=S)S/C1=C\c1cc(O)cc(O)c1 [Compound 3k, (5Z)-5-(3,5-Dihydroxybenzylidene)-2-thioxo-1,3-thiazolidin-4-one] | – | melting point: 230 to 232 °C |
| – | – | – | – | 2-(pyridin-3-yl)-1H-indol-6-ol | 7.22 | – |
| – | – | – | – | COc1cc(C)c(-c2c3c4cc(OC)c(O)cc4oc(=O)c3n3ccc4cc(O)c(OC)cc4c23)cc1O [XII] | 7.38 | – |
| – | – | – | – | c1csc(CNc2ncnc3ccc(-c4ccc5c(c4)OCO5)cc23)c1 [V] | 7.21 | – |
| – | – | – | – | Nc1nccc(-c2c[nH]c3nccc(O)c23)n1 [Merioline 2] | 7.54 | – |
| – | – | – | – | O=C1NC(Nc2ccccc2)=N/C1=C\c1ccc2c(c1)OCO2 [Leucettine L41] | – | pIC50 (DYRK1A [2]; Figure 1): 7.40 |
| – | – | – | – | Nc1ncc(I)c(-c2c[nH]c3ccccc23)n1 [Meridianine 74] | 7.18 | – |
| < 5.00 | < 5.00 | < 5.00 | < 5.00 | NN1C(=O)/C(=C/c2ccc3c(c2)OCO3)SC1=S [Compound 3o, (5Z)-3-Amino-5-benzo[1,3]dioxol-5-ylmethylene-2-thioxo-thiazolidin-4-one] | – | – |
| < 5.00 | < 5.00 | 7.15 | 5.07 | O=C1NC(=S)S/C1=C\c1ccc2c(c1)OCO2 [Compound 3a, (5Z)-5-(1,3-Benzodioxol-5-ylmethylene)-2-thioxo-1,3-thiazolidin-4-one] | – | pIC50 (NCI-H727): < 4.60; pIC50 (HCT116): < 4.60; pIC50 (Huh7 D12): < 4.60; pIC50 (MDA-MB231): < 4.60; pIC50 (Fibroblasts): < 4.60; pIC50 (PC3): < 4.60; pIC50 (Caco2): < 4.60 |
| – | – | – | – | O=c1oc2ccc(O)cc2c2c1[nH]c1ccc(O)cc12 [XI] | 7.17 | – |
| < 5.00 | < 5.00 | 6.15 | < 5.00 | O=C(O)CCN1C(=O)/C(=C/c2ccc3c(c2)OCO3)SC1=S [Compound 3v, (5Z)-3-(5-Benzo[1,3]dioxol-5-ylmethylene-4-oxo-2-thioxo-thiazolidin-3-yl)-propionic acid] | – | – |
| < 5.00 | < 5.00 | < 5.00 | < 5.00 | COc1ccc(C(=O)NN2C(=O)/C(=C/c3ccc4c(c3)OCO4)SC2=S)cc1 [Compound 3s] | – | – |
| < 5.00 | < 5.00 | 5.19 | < 5.00 | O=C1NC(=S)S/C1=C\c1ccc2c(c1)CCCO2 [Compound 3m, (5Z)-5-(Chroman-6-yl)methylene-2-thioxo-1,3-thiazolidin-4-one] | – | – |
| – | – | – | – | O=C1N=C(Nc2ccccc2)S/C1=C\c1ccc2c(c1)CCO2 [Compound 5w, (5Z)-5-(2,3-Dihydro-benzofuran-5-ylmethylene)-2-phenylamino-1,3-thiazol-4(5H)-one] | – | pIC50 (Casein kinase 1 (CK1δ/ε); Table 5): < 5.00; pIC50 (CDK5/p25; Table 5): < 5.00; pIC50 (DYRK1A [1]; Table 5): 6.92; pIC50 (GSK-3α/β; Table 5): < 5.00 |
| – | – | – | – | O=C1N=C(Nc2ccc(Cl)cc2)S/C1=C\c1ccc2c(c1)OCO2 [Compound 5v, (5Z)-5-Benzo[1,3]dioxol-5-ylmethylene-2-(4-chloro-phenylamino)-1,3-thiazol-4(5H)-one] | – | pIC50 (Casein kinase 1 (CK1δ/ε); Table 5): < 5.00; pIC50 (CDK5/p25; Table 5): < 5.00; pIC50 (DYRK1A [1]; Table 5): 5.05; pIC50 (GSK-3α/β; Table 5): < 5.00 |
| – | – | – | – | CN(Cc1cccs1)c1ncnc2ccc(-c3ccc4c(c3)OCO4)cc12 [VI] | 7.85 | – |
| – | – | – | – | O=C1N=C(Nc2ccccc2)S/C1=C\c1ccc2c(c1)OCCO2 [Compound 5x, (5Z)-5-(2,3-Dihydro-benzo[1,4]dioxin-6-ylmethylene)-2-phenylamino-1,3-thiazol-4(5H)-one] | – | pIC50 (Casein kinase 1 (CK1δ/ε); Table 5): < 5.00; pIC50 (CDK5/p25; Table 5): < 5.00; pIC50 (DYRK1A [1]; Table 5): 6.57; pIC50 (GSK-3α/β; Table 5): < 5.00 |
| – | – | – | – | CN1CCN(C2=NC(=O)/C(=C/c3ccc4c(c3)OCO4)S2)CC1 [Compound 5f, (5Z)-5-(1,3-Benzodioxol-5-ylmethylene)-2-(4-N-methylpiperazin-1-yl)-1,3-thiazol-4(5H)-one] | – | pIC50 (Casein kinase 1 (CK1δ/ε); Table 5): < 5.00; pIC50 (CDK5/p25; Table 5): < 5.00; pIC50 (DYRK1A [1]; Table 5): 5.64; pIC50 (GSK-3α/β; Table 5): < 5.00 |
| < 5.00 | < 5.00 | < 5.00 | < 5.00 | O=C1/C(=C/c2ccc3c(c2)OCO3)SC(=S)N1NS(=O)(=O)c1ccccc1 [Compound 3t, (5Z)-N-(5-Benzo[1,3]dioxol-5-ylmethylene-4-oxo-2-thioxo-thiazolidin-3-yl)-benzenesulfonamide] | – | – |
| < 5.00 | < 5.00 | < 5.00 | < 5.00 | O=C(NN1C(=O)/C(=C/c2ccc3c(c2)OCO3)SC1=S)c1ccccc1 [Compound 3p, (5Z)-N-(5-Benzo[1,3]dioxol-5-ylmethylene-4-oxo-2-thioxo-thiazolidin-3-yl)-benzamide] | – | – |
| < 5.00 | < 5.00 | < 5.00 | < 5.00 | O=C1NC(=S)S/C1=C\c1ccc(O)c(O)c1 [Compound 3j, (5Z)-5-(3,4-Dihydroxybenzylidene)-2-thioxo-1,3-thiazolidin-4-one] | – | melting point: 210 to 212 °C |
| – | – | – | – | O=C1N=C(N2CCSCC2)S/C1=C\c1ccc2c(c1)OCCO2 [Compound 5q, (5Z)-5-(2,3-Dihydro-1,4-benzodioxin-6-ylmethylene)-2-(thiomorpholin-4-yl)-1,3-thiazol-4(5H)-one] | – | pIC50 (Casein kinase 1 (CK1δ/ε); Table 5): < 5.00; pIC50 (CDK5/p25; Table 5): < 5.00; pIC50 (DYRK1A [1]; Table 5): 6.77; pIC50 (GSK-3α/β; Table 5): 5.43 |
